For the series, the system named is CCRIS mutagenicity, Ames/micronucleus/aberration tests. Briefly: CCRIS mutagenicity studies.
Setting [1] is: Test System: AMES SALMONELLA TYPHIMURIUM, Strain/Indicator: TA98, Metabolic Activation: NONE, Method: STANDARD PLATE.
[2] abbreviates: Test System: AMES SALMONELLA TYPHIMURIUM, Strain/Indicator: TA98, Metabolic Activation: RAT, LIVER, S-9, AROCLOR 1254, Method: STANDARD PLATE.
[3] abbreviates: Test System: AMES SALMONELLA TYPHIMURIUM, Strain/Indicator: TA100, Metabolic Activation: NONE, Method: STANDARD PLATE.
Where [4] appears, read: Test System: AMES SALMONELLA TYPHIMURIUM, Strain/Indicator: TA100, Metabolic Activation: RAT, LIVER, S-9, AROCLOR 1254, Method: STANDARD PLATE.
Where [5] appears, read: Test System: AMES SALMONELLA TYPHIMURIUM, Strain/Indicator: TA1535, Metabolic Activation: NONE, Method: STANDARD PLATE.
[6] abbreviates: Test System: AMES SALMONELLA TYPHIMURIUM, Strain/Indicator: TA1535, Metabolic Activation: RAT, LIVER, S-9, AROCLOR 1254, Method: STANDARD PLATE.
Setting [7] is: Test System: AMES SALMONELLA TYPHIMURIUM, Strain/Indicator: TA1537, Metabolic Activation: NONE, Method: STANDARD PLATE.
Setting [8] is: Test System: AMES SALMONELLA TYPHIMURIUM, Strain/Indicator: TA1537, Metabolic Activation: RAT, LIVER, S-9, AROCLOR 1254, Method: STANDARD PLATE.

In PubChem BioAssay AID1259407 (Chemical Carcinogenesis Research Information System (CCRIS), 2018) one finds mutagenic call data, which are given here for nine compounds.

The source made the active and inactive calls. How the calls were made is not given here.

In the case of `CN(C)CCC=C1c2ccccc2CCc2ccccc21`, the mutagenic call under setting [1] was “inactive; negative”; the mutagenic call under setting [2] is “inactive; negative”; the mutagenic call under setting [3] was “inactive; negative”; the mutagenic call under setting [4] was “inactive; negative”; the mutagenic call under setting [5] was “inactive; negative”; the mutagenic call under setting [6] was “inactive; negative”. Also, the mutagenic call is, setting by setting: under setting [7], “inactive; negative”; under setting [8], “inactive; negative”.

As for `c1ccc2cc3c(ccc4cccnc43)cc2c1`, the mutagenic call under setting [1] was “inactive; negative”, the mutagenic call under setting [2] was “active; positive”, the mutagenic call under setting [3] is “inactive; negative” and the mutagenic call under setting [4] was “inactive; negative”.

Take `Cn1c2ccccc2c2cc([N+](=O)[O-])ccc21`: the mutagenic call reads like this: under setting [1], “active; positive”; (Test System: AMES SALMONELLA TYPHIMURIUM, Strain/Indicator: TA98, Metabolic Activation: RAT LIVER S-9, AROCLOR 1254, Method: STANDARD PLATE) “active; positive”; under setting [3], “active; positive”; (Test System: AMES SALMONELLA TYPHIMURIUM, Strain/Indicator: TA100, Metabolic Activation: RAT LIVER S-9, AROCLOR 1254, Method: STANDARD PLATE) “active; positive”.

Turning to `IC(I)I`, the mutagenic call is “inactive; negative; toxicity at 160 and 240 um” (End Point: IN VITRO CHROMOSOMAL ABERRATIONS, Test System: SYRIAN HAMSTER EMBRYO (SHE) CELLS, Metabolic Activation: NONE); “inactive; negative” (End Point: IN VITRO CHROMOSOMAL ABERRATIONS, Test System: SYRIAN HAMSTER EMBRYO (SHE) CELLS, Metabolic Activation: RAT, LIVER, S-9); “active; positive (structural changes and ploidy)” (End Point: In vitro chromosomal aberrations, Test System: D824 human dental pulp cells, Metabolic Activation: None).

`Oc1ccc2ccccc2c1N=Nc1ccc(N=Nc2ccccc2)cc1`: the mutagenic call runs as follows: under setting [1], “inactive; negative”; under setting [3], “inactive; negative”.

Consider `Cc1ccc2c(c1Nc1ccccc1)C(=O)c1ccccc1C2=O`, for which the mutagenic call is, setting by setting: under setting [1], “inactive; negative”; under setting [2], “inactive; negative”; under setting [4], “active; positive”; under setting [5], “inactive; negative”; under setting [6], “inactive; negative”; under setting [7], “inactive; negative”. Further, the mutagenic call was “inactive; negative” under setting [8]; “inactive; negative” (Test System: AMES SALMONELLA TYPHIMURIUM, Strain/Indicator: TA1538, Metabolic Activation: NONE, Method: STANDARD PLATE); “inactive; negative” (Test System: AMES SALMONELLA TYPHIMURIUM, Strain/Indicator: TA1538, Metabolic Activation: RAT, LIVER, S-9, AROCLOR 1254, Method: STANDARD PLATE).

On to `CCC(=O)O`, for which the mutagenic call (Test System: AMES SALMONELLA TYPHIMURIUM, Strain/Indicator: TA97, Metabolic Activation: HAMSTER, LIVER, S-9, AROCLOR 1254 (10 OR 30%), Method: PREINCUBATION) is “inactive; negative”; the mutagenic call (Test System: AMES SALMONELLA TYPHIMURIUM, Strain/Indicator: TA97, Metabolic Activation: NONE, Method: PREINCUBATION) is “inactive; negative”; the mutagenic call (Test System: AMES SALMONELLA TYPHIMURIUM, Strain/Indicator: TA97, Metabolic Activation: RAT, LIVER, S-9, AROCLOR 1254 (10 OR 30%), Method: PREINCUBATION) was “inactive; negative”; the mutagenic call (Test System: AMES SALMONELLA TYPHIMURIUM, Strain/Indicator: TA97A, Metabolic Activation: NONE, Method: PREINCUBATION) is “inactive; negative”; the mutagenic call (Test System: AMES SALMONELLA TYPHIMURIUM, Strain/Indicator: TA97A, Metabolic Activation: RAT, LIVER, S-9, AROCLOR 1254, Method: PREINCUBATION) is “inactive; negative”; the mutagenic call (Test System: AMES SALMONELLA TYPHIMURIUM, Strain/Indicator: TA98, Metabolic Activation: HAMSTER, LIVER, S-9, AROCLOR 1254 (10 OR 30%), Method: PREINCUBATION) was “inactive; negative”. In addition, the mutagenic call by setting is: (Test System: AMES SALMONELLA TYPHIMURIUM, Strain/Indicator: TA98, Metabolic Activation: NONE, Method: PREINCUBATION) “inactive; negative”; (Test System: AMES SALMONELLA TYPHIMURIUM, Strain/Indicator: TA98, Metabolic Activation: RAT LIVER S-9, PHENOBARBITAL AND BETA-NAPHTHOFLAVONE, Method: PREINCUBATION) “inactive; negative”; (Test System: AMES SALMONELLA TYPHIMURIUM, Strain/Indicator: TA98, Metabolic Activation: RAT, LIVER, S-9, AROCLOR 1254 (10 OR 30%), Method: PREINCUBATION) “inactive; negative”; (Test System: AMES SALMONELLA TYPHIMURIUM, Strain/Indicator: TA100, Metabolic Activation: HAMSTER, LIVER, S-9, AROCLOR 1254 (10 OR 30%), Method: PREINCUBATION) “inactive; negative”; (Test System: AMES SALMONELLA TYPHIMURIUM, Strain/Indicator: TA100, Metabolic Activation: NONE, Method: PREINCUBATION) “inactive; negative”; (Test System: AMES SALMONELLA TYPHIMURIUM, Strain/Indicator: TA100, Metabolic Activation: RAT LIVER S-9, PHENOBARBITAL AND BETA-NAPHTHOFLAVONE, Method: PREINCUBATION) “inactive; negative”. Besides, the mutagenic call was “inactive; negative” (Test System: AMES SALMONELLA TYPHIMURIUM, Strain/Indicator: TA100, Metabolic Activation: RAT, LIVER, S-9, AROCLOR 1254 (10 OR 30%), Method: PREINCUBATION); “inactive; negative” (Test System: AMES SALMONELLA TYPHIMURIUM, Strain/Indicator: TA102, Metabolic Activation: NONE, Method: PREINCUBATION); “inactive; negative” (Test System: AMES SALMONELLA TYPHIMURIUM, Strain/Indicator: TA102, Metabolic Activation: RAT, LIVER, S-9, AROCLOR 1254, Method: PREINCUBATION); “inactive; negative” (Test System: AMES SALMONELLA TYPHIMURIUM, Strain/Indicator: TA1535, Metabolic Activation: HAMSTER, LIVER, S-9, AROCLOR 1254 (10 OR 30%), Method: PREINCUBATION); “inactive; negative” (Test System: AMES SALMONELLA TYPHIMURIUM, Strain/Indicator: TA1535, Metabolic Activation: NONE, Method: PREINCUBATION); “inactive; negative” (Test System: AMES SALMONELLA TYPHIMURIUM, Strain/Indicator: TA1535, Metabolic Activation: RAT LIVER S-9, PHENOBARBITAL AND BETA-NAPHTHOFLAVONE, Method: PREINCUBATION). For the same compound, the mutagenic call was “inactive; negative” (Test System: AMES SALMONELLA TYPHIMURIUM, Strain/Indicator: TA1535, Metabolic Activation: RAT, LIVER, S-9, AROCLOR 1254 (10 OR 30%), Method: PREINCUBATION); “inactive; negative” (Test System: AMES SALMONELLA TYPHIMURIUM, Strain/Indicator: TA1537, Metabolic Activation: HAMSTER, LIVER, S-9, AROCLOR 1254 (30%), Method: PREINCUBATION); “inactive; negative” (Test System: AMES SALMONELLA TYPHIMURIUM, Strain/Indicator: TA1537, Metabolic Activation: NONE, Method: PREINCUBATION); “inactive; negative” (Test System: AMES SALMONELLA TYPHIMURIUM, Strain/Indicator: TA1537, Metabolic Activation: RAT LIVER S-9, PHENOBARBITAL AND BETA-NAPHTHOFLAVONE, Method: PREINCUBATION); “inactive; negative” (Test System: AMES SALMONELLA TYPHIMURIUM, Strain/Indicator: TA1537, Metabolic Activation: RAT, LIVER, S-9, AROCLOR 1254 (30%), Method: PREINCUBATION); “inactive; negative” (Test System: E.COLI, Strain/Indicator: WP2UVRA/PKM101, Metabolic Activation: NONE, Method: PREINCUBATION). The mutagenic call (Test System: E.COLI, Strain/Indicator: WP2UVRA/PKM101, Metabolic Activation: RAT LIVER S-9, PHENOBARBITAL AND BETA-NAPHTHOFLAVONE, Method: PREINCUBATION) was “inactive; negative”.

For the compound `O=C(Nc1ccc(Br)cc1)c1csc([N+](=O)[O-])c1`, the mutagenic call is “active; positive” under setting [1] and “active; positive” under setting [3].

Turning to `CC1(C)CC2=C(C=O)[C@]3(C=O)C[C@]3(C)[C@@H](O)[C@@H]2C1`, the mutagenic call is “inactive; negative” under setting [1]; “inactive; negative” under setting [3]; “inactive; negative” (Test System: AMES SALMONELLA TYPHIMURIUM, Strain/Indicator: TA2637, Metabolic Activation: NONE, Method: STANDARD PLATE).
